These molecules were tested on mice (assay: effect of stimulating hair growth in dehaired mice). Details: 1.0 wt % in water/ethanol/1,3-butylene glycol, 150 μl/day applied on back for 21 days; newly grown hair.
Format: in vivo
Experimental: To evaluate the adamantane derivatives according to the present disclosure for the effect of stimulating hair growth, each of the adamantane derivatives according to Examples 1-10 is dissolved into a solvent including water/ethanol/1,3-butylene glycol (5/3/2) to a concentration of 1.0 wt %. Next, mice 47-53 days after the birth are dehaired on their backs. Then, mice whose skins on the back portions are clear are selected and grouped by 8 mice per group. Each adamantane derivative having a concentration of 1.0 wt % is applied to each mouse every day in an amount of 150 μl/day for 21 days. After 21 days, newly grown hair is weighed and the weight is compared with negative control.

In order of falling “Hair weight” value:
1. Cc1cc(NC(=O)C23CC4CC(CC(C4)C2)C3)ccc1[N+](=O)[O-] [Example 1, Adamantan-1-carboxylic acid-(3-methyl-4-nitrophenyl)-amide]  77 ± 11 mg
2. O=C(Nc1ccc([N+](=O)[O-])cc1Cl)C12CC3CC(CC(C3)C1)C2 [Example 4, Adamantan-1-carboxylic acid-(2-chloro-4-nitrophenyl)-amide]  75 ± 10 mg
3. COc1cc(NC(=O)C23CC4CC(CC(C4)C2)C3)ccc1[N+](=O)[O-] [Example 2, Adamantan-1-carboxylic acid-(3-methoxy-4-nitrophenyl)-amide]  74 ± 9 mg
4. O=C(Nc1ccc([N+](=O)[O-])c(Cl)c1)C12CC3CC(CC(C3)C1)C2 [Example 3, Adamantan-1-carboxylic acid-(3-chloro-4-nitrophenyl)-amide]  72 ± 6 mg
5. COc1cc(NC(=O)C23CC4CC(CC(C4)C2)C3)ccc1C#N [Example 5, Adamantan-1-carboxylic acid-(4-cyano-3-methoxy-phenyl)-amide]  71 ± 14 mg
6. COc1cc(C(=O)NC23CC4CC(CC(C4)C2)C3)ccc1[N+](=O)[O-] [Example 8]  70 ± 14 mg
7. Cc1cc(C(=O)NC23CC4CC(CC(C4)C2)C3)ccc1[N+](=O)[O-] [Example 7]  68 ± 8 mg
8. N#Cc1ccc(NC(=O)C23CC4CC(CC(C4)C2)C3)c(Cl)c1 [Example 6, Adamantan-1-carboxylic acid-(4-cyano-2-chloro-phenyl)-amide]  67 ± 12 mg
9. N#Cc1ccc(NC(=O)C23CC4CC(CC(C4)C2)C3)cc1C(F)(F)F [Comp. Ex. 1, Adamantan-1-carboxylic acid-(4-cyano-3-trifluoro-phenyl)amide, reference compound]  59 ± 12 mg

These molecules were tested on Rat-derived follicle dermal papilla cells (assay: growth of dermal papilla cells (MTT)). Details: 10 μg/ml, 48 hours, MTT absorbance at 570 nm relative to DMSO control (100), read-out: Ratio (%) of growth of dermal papilla cells.
Format: cell-based
Experimental: Rat-derived follicle dermal papilla cells cultured in Dulbecco's modified Eagle's media (DMEM) containing 2% of fetal bovine serum are dispensed to a 96-well microtiter plate to 1,000 cells/well. As positive control, minoxidil diluted to a concentration of 10 μg/ml is added. Each of the adamantane derivatives according to Examples 1-10 diluted to a concentration of 10 μg/ml is added, followed by culturing at 37° C. for 48 hours. After culturing, 0.2% 3-[4,5-dimethylthiazol-2-yl]-2,5-diphenyltetrazolium bromide (MTT) solution is added to each well in an amount of 50 μl, followed by culturing at 37° C. for 4 hours. Then, the produced formazane is dissolved with dimethyl sulfoxide (DMSO). A microplate reader is used to determine the absorbance of the dissolved formazane at 570 nm. The absorbance is compared with the absorbance of control treated with DMSO solution alone and the ratio (%) of growth of dermal papilla cells is evaluated based on the relative difference.

In order of falling activity at 10 µg/mL:
1. COc1cc(NC(=O)C23CC4CC(CC(C4)C2)C3)ccc1C#N [Example 5, Adamantan-1-carboxylic acid-(4-cyano-3-methoxy-phenyl)-amide]  145%
2. O=C(Nc1ccc([N+](=O)[O-])cc1Cl)C12CC3CC(CC(C3)C1)C2 [Example 4, Adamantan-1-carboxylic acid-(2-chloro-4-nitrophenyl)-amide]  130%
3. COc1cc(C(=O)NC23CC4CC(CC(C4)C2)C3)ccc1[N+](=O)[O-] [Example 8]  125%
4. Cc1cc(NC(=O)C23CC4CC(CC(C4)C2)C3)ccc1[N+](=O)[O-] [Example 1, Adamantan-1-carboxylic acid-(3-methyl-4-nitrophenyl)-amide]  124%
5. COc1cc(NC(=O)C23CC4CC(CC(C4)C2)C3)ccc1[N+](=O)[O-] [Example 2, Adamantan-1-carboxylic acid-(3-methoxy-4-nitrophenyl)-amide]  124%
6. N#Cc1ccc(NC(=O)C23CC4CC(CC(C4)C2)C3)c(Cl)c1 [Example 6, Adamantan-1-carboxylic acid-(4-cyano-2-chloro-phenyl)-amide]  124%
7. Cc1cc(C(=O)NC23CC4CC(CC(C4)C2)C3)ccc1[N+](=O)[O-] [Example 7]  123%
8. Nc1cc(N2CCCCC2)nc(N)[n+]1[O-] [minoxidil, reference compound]  120%
9. O=C(Nc1ccc([N+](=O)[O-])c(Cl)c1)C12CC3CC(CC(C3)C1)C2 [Example 3, Adamantan-1-carboxylic acid-(3-chloro-4-nitrophenyl)-amide]  118%
10. N#Cc1ccc(NC(=O)C23CC4CC(CC(C4)C2)C3)cc1C(F)(F)F [Comp. Ex. 1, Adamantan-1-carboxylic acid-(4-cyano-3-trifluoro-phenyl)amide, reference compound]  114%

These molecules were tested against T1, androgen receptor (AR) (Homo sapiens, UniProt P10275, T878A) (assay: competitive steroid binding assay ([3H] methyltrienolone displacement)). Details: not given.
T1 construct: wild type androgen receptor (AR) is obtained by isolating cytoplasm fraction from LNCaP cell line; host or cells: LNCaP cytoplasm fraction
T1 sequence (P10275 1-920 T878A): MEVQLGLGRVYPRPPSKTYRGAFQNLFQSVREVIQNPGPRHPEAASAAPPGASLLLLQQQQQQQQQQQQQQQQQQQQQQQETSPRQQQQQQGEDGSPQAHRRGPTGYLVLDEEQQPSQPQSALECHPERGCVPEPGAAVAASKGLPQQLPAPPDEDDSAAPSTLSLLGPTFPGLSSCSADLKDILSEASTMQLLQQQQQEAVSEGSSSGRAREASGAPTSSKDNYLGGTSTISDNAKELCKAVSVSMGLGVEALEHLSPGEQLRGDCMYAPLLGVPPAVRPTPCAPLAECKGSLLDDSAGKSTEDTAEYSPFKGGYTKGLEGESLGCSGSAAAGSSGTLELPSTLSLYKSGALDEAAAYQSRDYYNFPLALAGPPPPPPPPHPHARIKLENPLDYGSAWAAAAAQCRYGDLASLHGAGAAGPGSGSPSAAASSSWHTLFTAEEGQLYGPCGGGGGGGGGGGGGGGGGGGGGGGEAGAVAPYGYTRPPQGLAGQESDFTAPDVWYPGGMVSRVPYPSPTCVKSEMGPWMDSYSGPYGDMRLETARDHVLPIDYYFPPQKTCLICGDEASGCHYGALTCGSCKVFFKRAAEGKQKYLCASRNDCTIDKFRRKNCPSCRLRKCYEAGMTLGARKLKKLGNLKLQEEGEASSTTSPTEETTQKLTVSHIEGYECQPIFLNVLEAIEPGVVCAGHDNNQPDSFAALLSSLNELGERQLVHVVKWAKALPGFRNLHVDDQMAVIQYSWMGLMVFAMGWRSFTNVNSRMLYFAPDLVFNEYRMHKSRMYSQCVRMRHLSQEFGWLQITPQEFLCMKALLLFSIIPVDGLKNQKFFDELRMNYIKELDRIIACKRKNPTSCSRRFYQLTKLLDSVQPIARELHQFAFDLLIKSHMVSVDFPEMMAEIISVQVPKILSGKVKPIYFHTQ
Experimental: This assay determines whether or not the adamantane derivative according to the present disclosure is bound to androgen receptor (AR) competitively with methyltrienolone, which is an agonist to androgen receptor.
Such competitive steroid binding assay is carried out by introducing tritium-labeled methyltrienolone as a ligand for androgen receptor, introducing test samples non-labeled with radio isotope thereto at a different concentration, and checking whether or not the test samples are bound to androgen receptor competitively with the ligand, methyltrienolone. In this manner, the test samples are evaluated for their anti-androgenic effects. Herein, the level of the remaining isotope, tritium, is measured to determine whether or not the test samples are bound to androgen receptor competitively with the ligand, methyltrienolone.
Particularly, wild type androgen receptor (AR) is obtained by isolating cytoplasm fraction from LNCaP cell line (ATCC® CRL-1740™). […] The reaction is carried out at 4° C. for 24 hours and the reaction mixture is filtered and washed. Then, radio activity is measured in each ligand bound to the receptor.

Work on N#Cc1ccc(NC(=O)C23CC4CC(CC(C4)C2)C3)cc1C(F)(F)F [Comp. Ex. 1, Adamantan-1-carboxylic acid-(4-cyano-3-trifluoro-phenyl)amide, reference compound] yielded an IC50 of 11400 nM.

Same assay, conditions: wild type AR from LNCaP cytoplasm fraction; [3H] methyltrienolone; 4° C. for 24 hours

In order of rising IC50:
1. COc1cc(NC(=O)C23CC4CC(CC(C4)C2)C3)ccc1[N+](=O)[O-] [Example 2, Adamantan-1-carboxylic acid-(3-methoxy-4-nitrophenyl)-amide]  240 nM
2. O=C(Nc1ccc([N+](=O)[O-])c(Cl)c1)C12CC3CC(CC(C3)C1)C2 [Example 3, Adamantan-1-carboxylic acid-(3-chloro-4-nitrophenyl)-amide]  440 nM
3. COc1cc(C(=O)NC23CC4CC(CC(C4)C2)C3)ccc1[N+](=O)[O-] [Example 8]  740 nM
4. Cc1cc(NC(=O)C23CC4CC(CC(C4)C2)C3)ccc1[N+](=O)[O-] [Example 1, Adamantan-1-carboxylic acid-(3-methyl-4-nitrophenyl)-amide]  1200 nM
5. COc1cc([N+](=O)[O-])ccc1NC(=O)C12CC3CC(CC(C3)C1)C2 [Example 25, Adamantan-1-carboxylic Acid (2-methoxy-4-nitrophenyl)amide]  1200 nM
6. O=C(Nc1ccc([N+](=O)[O-])cc1Cl)C12CC3CC(CC(C3)C1)C2 [Example 4, Adamantan-1-carboxylic acid-(2-chloro-4-nitrophenyl)-amide]  1400 nM
7. Cc1cc(C(=O)NC23CC4CC(CC(C4)C2)C3)ccc1[N+](=O)[O-] [Example 7]  1900 nM
8. COc1cc(NC(=O)C23CC4CC(CC(C4)C2)C3)ccc1C#N [Example 5, Adamantan-1-carboxylic acid-(4-cyano-3-methoxy-phenyl)-amide]  2200 nM
9. N#Cc1ccc(NC(=O)C23CC4CC(CC(C4)C2)C3)c(Cl)c1 [Example 6, Adamantan-1-carboxylic acid-(4-cyano-2-chloro-phenyl)-amide]  2400 nM
10. COc1cc(NC(=O)C23CC4CC(CC(C4)C2)C3)ccc1Br [Example 19, Adamantan-1-carboxylic Acid (4-bromo-3-methoxyphenyl)amide]  5300 nM
11. O=C(Nc1cccc([N+](=O)[O-])c1)C12CC3CC(CC(C3)C1)C2 [Example 23, Adamantan-1-carboxylic Acid (3-nitrophenyl)amide]  13500 nM
12. COc1cc(NC(=O)C23CC4CC(CC(C4)C2)C3)ccc1F [Example 17, Adamantan-1-carboxylic Acid (4-fluoro-3-methoxyphenyl)amide]  14800 nM

What follows are molecules tested on male and female subjects suffering from excessive secretion of sebum (assay: effect of inhibiting secretion of sebum (Sebumeter SM810)). Details: nourishing cream including the compound applied every day; after 2 weeks.
Format: in vivo
Experimental: The following test is carried out to evaluate the adamantane derivatives according to Examples 1-10 for the effect of inhibiting secretion of sebum. Twenty male and female subjects suffering from excessive secretion of sebum are selected and allowed to apply nourishing cream including each of Examples 1-10 and nourishing cream of negative control every day at a predetermined site for 4 weeks. Then, Sebumeter SM810 (C&K Electronic Co., Germany) is used to determine the average ratio (%) of decrease in sebum after 2 weeks and 4 weeks.

In order of rising “Ratio (%) of decrease in sebum After 2 weeks” value:
1. N#Cc1ccc(NC(=O)C23CC4CC(CC(C4)C2)C3)cc1C(F)(F)F [Comp. Ex. 1, Adamantan-1-carboxylic acid-(4-cyano-3-trifluoro-phenyl)amide, reference compound]  16.5%
2. N#Cc1ccc(NC(=O)C23CC4CC(CC(C4)C2)C3)c(Cl)c1 [Example 6, Adamantan-1-carboxylic acid-(4-cyano-2-chloro-phenyl)-amide]  17.4%
3. O=C(Nc1ccc([N+](=O)[O-])c(Cl)c1)C12CC3CC(CC(C3)C1)C2 [Example 3, Adamantan-1-carboxylic acid-(3-chloro-4-nitrophenyl)-amide]  18.1%
4. Cc1cc(C(=O)NC23CC4CC(CC(C4)C2)C3)ccc1[N+](=O)[O-] [Example 7]  18.1%
5. COc1cc(NC(=O)C23CC4CC(CC(C4)C2)C3)ccc1C#N [Example 5, Adamantan-1-carboxylic acid-(4-cyano-3-methoxy-phenyl)-amide]  18.7%
6. COc1cc(NC(=O)C23CC4CC(CC(C4)C2)C3)ccc1[N+](=O)[O-] [Example 2, Adamantan-1-carboxylic acid-(3-methoxy-4-nitrophenyl)-amide]  19.4%
7. COc1cc(C(=O)NC23CC4CC(CC(C4)C2)C3)ccc1[N+](=O)[O-] [Example 8]  19.8%
8. O=C(Nc1ccc([N+](=O)[O-])cc1Cl)C12CC3CC(CC(C3)C1)C2 [Example 4, Adamantan-1-carboxylic acid-(2-chloro-4-nitrophenyl)-amide]  20.7%
9. Cc1cc(NC(=O)C23CC4CC(CC(C4)C2)C3)ccc1[N+](=O)[O-] [Example 1, Adamantan-1-carboxylic acid-(3-methyl-4-nitrophenyl)-amide]  21.5%

Same assay, conditions: nourishing cream including the compound applied every day; after 4 weeks

In order of rising “Ratio (%) of decrease in sebum After 4 weeks” value:
1. N#Cc1ccc(NC(=O)C23CC4CC(CC(C4)C2)C3)cc1C(F)(F)F [Comp. Ex. 1, Adamantan-1-carboxylic acid-(4-cyano-3-trifluoro-phenyl)amide, reference compound]  26.2%
2. O=C(Nc1ccc([N+](=O)[O-])c(Cl)c1)C12CC3CC(CC(C3)C1)C2 [Example 3, Adamantan-1-carboxylic acid-(3-chloro-4-nitrophenyl)-amide]  27.6%
3. COc1cc(NC(=O)C23CC4CC(CC(C4)C2)C3)ccc1[N+](=O)[O-] [Example 2, Adamantan-1-carboxylic acid-(3-methoxy-4-nitrophenyl)-amide]  28.8%
4. O=C(Nc1ccc([N+](=O)[O-])cc1Cl)C12CC3CC(CC(C3)C1)C2 [Example 4, Adamantan-1-carboxylic acid-(2-chloro-4-nitrophenyl)-amide]  29.7%
5. Cc1cc(C(=O)NC23CC4CC(CC(C4)C2)C3)ccc1[N+](=O)[O-] [Example 7]  29.8%
6. N#Cc1ccc(NC(=O)C23CC4CC(CC(C4)C2)C3)c(Cl)c1 [Example 6, Adamantan-1-carboxylic acid-(4-cyano-2-chloro-phenyl)-amide]  31.4%
7. COc1cc(NC(=O)C23CC4CC(CC(C4)C2)C3)ccc1C#N [Example 5, Adamantan-1-carboxylic acid-(4-cyano-3-methoxy-phenyl)-amide]  32.8%
8. COc1cc(C(=O)NC23CC4CC(CC(C4)C2)C3)ccc1[N+](=O)[O-] [Example 8]  33.7%
9. Cc1cc(NC(=O)C23CC4CC(CC(C4)C2)C3)ccc1[N+](=O)[O-] [Example 1, Adamantan-1-carboxylic acid-(3-methyl-4-nitrophenyl)-amide]  35.2%
